Assay results taken from US8609654B1, “Compounds for enzyme inhibition” (Onyx Therapeutics, Inc., priority 2006, dated 2013).

Columns and labels:
[1] = test system: chymotryptic-like activity of isolated 20S constitutive proteasome vs immunoproteasome; assay: Enzyme kinetic assay with isolated 20S proteasome preps, EC50 ratio of CT-L activity (20S ratio); type: biochemical; details: constitutive proteasome to immunoproteasome, >1 = prefers immunoproteasome
From the text: Enzyme kinetic assays such as those disclosed in U.S. application Ser. No. 09/569,748, Example 2 and Stein et al., Biochem. (1996), 35, 3899-3908 use isolated 20S proteasome preps with greater than 90% constitutive proteasome subunits or immunoproteasome subunits. The inhibitory preference of the molecule is then based on the EC50 ratio of the chymotryptic-like activity of the constitutive proteasome to that of the immunoproteasome (20S ratio).

[2] = target: T1, 20S proteasome subunit β5 vs immunoproteasome subunit LMP7 in RPMI-8226 cells (Homo sapiens, UniProt P28062+P28074); assay: ELISA-based active site assay in RPMI-8226 cells (ELISA ratio); type: cell-based; details: for Elisa ratio (beta5:LMP7): EC50 ratio with β5 antibody to LMP7 antibody, RPMI-8226 cells, >1 = prefers immunoproteasome
T1 construct: Cells expressing approximately equivalent amounts of immuno- and constitutive proteasome (e.g., RPMI-8226) are treated with test compound; endogenous in cells; host or cells: RPMI-8226 multiple myeloma cells
T1 sequence (P28074 60-263): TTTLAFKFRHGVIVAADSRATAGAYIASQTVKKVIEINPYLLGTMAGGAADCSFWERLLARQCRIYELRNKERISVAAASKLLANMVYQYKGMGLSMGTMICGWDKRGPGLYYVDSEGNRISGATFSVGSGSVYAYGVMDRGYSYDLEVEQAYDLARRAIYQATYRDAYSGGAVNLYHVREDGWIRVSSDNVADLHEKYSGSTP
T1 sequence (P28062 73-276): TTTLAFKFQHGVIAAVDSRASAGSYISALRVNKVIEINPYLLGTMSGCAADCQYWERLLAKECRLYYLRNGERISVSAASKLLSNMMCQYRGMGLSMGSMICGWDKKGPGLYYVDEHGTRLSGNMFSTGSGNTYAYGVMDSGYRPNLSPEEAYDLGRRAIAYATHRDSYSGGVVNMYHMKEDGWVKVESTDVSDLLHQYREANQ
Experimental: Lastly, a more cell-based approach can be utilized. Cells expressing approximately equivalent amounts of immuno- and constitutive proteasome (e.g., RPMI-8226) are treated with test compound, followed by the method for determining the activity of a proteasome inhibitor as described in application Ser. No. 11/254,541. The ratio of the EC50 generated in the ELISA-based assay using β5 antibody and LMP7 antibodies (ELISA ratio) provides the basis for determining the inhibitory preference of the test compound. […] In all three assays, a ratio of less than one denotes the molecule inhibits the CT-L activity of the constitutive proteasome better than that of the immunoproteasome. Ratios greater than one signifies the molecule inhibits chymotrypsin-like activity of the immunoproteasome better than that of the constitutive proteasome.
A suitable ELISA assay may be found in U.S. patent application Ser. No. 11/254,541, incorporated herein in its entirety. Briefly, RPMI-8226 cells were treated with 0.1 nM to 1 μM of proteasome Inhibitor B. The samples were then washed with phosphate-buffered saline (PBS) and lysed in hypotonic buffer (20 mM Tris pH 8, 5 mM EDTA) (Tris-HCl and EDTA are available from Teknova, Inc., Hollister, Calif.). Cellular debris was removed by centrifugation at 14,000 rpm in a microfuge (4° C.) for 2 min. The supernatant was transferred to a fresh tube, snap frozen in liquid nitrogen and stored at −80° C. After thawing on ice, the samples (30 μl for assays run in triplicate) were treated with 500 nM of Inhibitor A for 1 hr at room temperature. Following treatment with Inhibitor A, the lysate was denatured by addition of seven volumes of 1% SDS (210 μl) (available from Bio-Rad, Hercules, Calif.) and heating at 99° C. with vigorous shaking for 5 min. The sample was allowed to cool and two volumes (60 μl) of 10% Triton X-100 (available from Bio-Rad, Hercules, Calif.) was added.
Streptavidin sepharose beads (6.5 μl/well) (available from Amersham Biosciences, Piscataway, N.J.), were washed three times with 1 ml PBS (available from Mediatech, Inc., Herndon, Va.) in a microcentrifuge tube. The beads were resuspended in ELISA wash/block buffer (PBS+0.1% Tween 20+1% bovine serum albumin; 20 μl/well) and transferred to the wells of a 96 well filter plate (BSA is available from Sigma, St. Louis, Mo.; Tween is available from Calbiochem, San Diego, Calif.). Denatured whole blood or PBMC lysates that were treated with Inhibitor 3 were added to the filter plate wells containing the streptavidin sepharose beads (each sample assayed in triplicate) and incubated for 1 hr at room temperature with shaking (MultiScreen-DV Opaque Plates with low protein binding durapore membrane; available from Millipore, Billerica, Mass.). The unbound material was removed by gentle filtration and the beads were washed six times with ELISA wash/block buffer (200 μl each).
Primary antibody to human 20S proteasome subunit (35 (rabbit polyclonal antibody; available from Biomol, Plymouth Meeting, Pa.) or human 20S immunoproteasome subunit LMP7 (rabbit polyclonal antibody; available from Affinity BioReagents, Golden, Colo.) was diluted 1:1000 in ELISA wash/block buffer, added to the beads (100 μl/well), and incubated for 1 hr at room temperature on an orbital shaker. The beads were washed six times with ELISA wash/block buffer with gentle filtration. Secondary antibody treatment (1:5000) and washing are as described for primary antibody (goat anti-rabbit antibody-HRP conjugate; available from Biosource, Camarillo, Calif.). The beads were then resuspended in 100 μl chemiluminescent detection reagent (Super Signal Pico Chemiluminescent Substrate™; available from Pierce, Rockford, Ill.) and luminescence was read on a Tecan plate reader. […]

[3] = target: T2, 26S proteasome CT-L activity in lysate of HT29 (constitutive) vs Sultan/Thp1 (immunoproteasome) cells (Homo sapiens, UniProt P28062+P28074); assay: CT-L EC50 with 26S proteasome in cell lysate (Lysate ratio); type: biochemical; details: HT29 lysate to Sultan/Thp1 lysate, >1 = prefers immunoproteasome
T2 construct: using 26S proteasome in the context of a cell lysate; endogenous in cells; host or cells: HT29 lysate (constitutive); Sultan or THP1 lysate (immunoproteasome)
T2 sequence (P28074 60-263): T1 sequence (P28074 60-263)
T2 sequence (P28062 73-276): T1 sequence (P28062 73-276)
Experimental: Alternatively, the CT-L EC50 of a compound can be determined using 26S proteasome in the context of a cell lysate. Compound is added to lysate generated from cells that either predominantly express constitutive proteasome (e.g., HT29) or immunoproteasome (e.g., THP1). Again, the inhibitory preference is then based on the EC50 ratio (Lysate ratio).

CC(NC(=O)OCc1ccccc1)C(=O)N1Cc2ccccc2C[C@@H]1C(=O)N[C@@H](Cc1ccccc1)C(=O)C1(C)CO1 (some centres unmarked)
20 S ratio (const:immuno) [1]: <1.0
Elisa ratio (beta5:LMP7) [2]: <0.5
Lysate ratio (HT29:Sultan/Thp1) [3]: <1.0

CC(NC(=O)OCc1ccccc1)C(=O)N[C@@H](Cc1ccccc1)C(=O)N[C@@H](C)C(=O)C1(C)CO1 (some centres unmarked)
20 S ratio (const:immuno) [1]: <0.5
Elisa ratio (beta5:LMP7) [2]: <0.5
Lysate ratio (HT29:Sultan/Thp1) [3]: <0.5

COc1ccc(NC(=O)NC(CC(C)C)C(=O)N[C@@H](Cc2ccccc2)C(=O)N[C@@H](CC(C)C)C(=O)C2(C)CO2)cc1 (some centres unmarked)
Lysate ratio (HT29:Sultan/Thp1) [3]: <0.5

CC(NC(=O)OCc1ccccc1)C(=O)N[C@@H](Cc1ccc(C(F)(F)F)cc1)C(=O)N[C@@H](Cc1ccccc1)C(=O)C1(C)CO1 (some centres unmarked)
20 S ratio (const:immuno) [1]: >5.0
Elisa ratio (beta5:LMP7) [2]: >1.0
Lysate ratio (HT29:Sultan/Thp1) [3]: >2.0

CC(NC(=O)OCc1ccccc1)C(=O)N[C@@H](Cc1csc2ccccc12)C(=O)N[C@@H](Cc1ccccc1)C(=O)C1(C)CO1 (some centres unmarked)
20 S ratio (const:immuno) [1]: >1.0
Elisa ratio (beta5:LMP7) [2]: >3.0
Lysate ratio (HT29:Sultan/Thp1) [3]: >1.0

Cc1ccc(CCC(=O)N[C@@H](CC(C)C)C(=O)N[C@@H](Cc2ccccc2)C(=O)N[C@@H](CC(C)C)C(=O)C2(C)CO2)cc1 (some centres unmarked)
Lysate ratio (HT29:Sultan/Thp1) [3]: <0.5

CC1(C(=O)[C@H](Cc2ccccc2)NC(=O)[C@H](Cc2c[nH]c3ccccc23)NC(=O)C(CSCc2ccccc2)NC(=O)OCc2ccccc2)CO1 (some centres unmarked)
20 S ratio (const:immuno) [1]: >2.0
Elisa ratio (beta5:LMP7) [2]: >1.0
Lysate ratio (HT29:Sultan/Thp1) [3]: >3.0

CC(C)C[C@H](NC(=O)[C@H](Cc1c[nH]c2ccccc12)NC(=O)[C@H](C)NC(=O)OCc1ccccc1)C(=O)C1(C)CO1 (some centres unmarked)
20 S ratio (const:immuno) [1]: <0.5

CC(C)C[C@H](NC(=O)OCc1ccccc1)C(=O)N[C@@H](Cc1ccccc1)C(=O)N[C@@H](CC(C)C)C(=O)C1(C)CO1 (some centres unmarked)
20 S ratio (const:immuno) [1]: <0.5
Elisa ratio (beta5:LMP7) [2]: <0.5
Lysate ratio (HT29:Sultan/Thp1) [3]: <0.5

CC1(C(=O)[C@H](Cc2ccccc2)NC(=O)[C@H](Cc2c[nH]c3ccccc23)NC(=O)[C@@H](NC(=O)OCc2ccccc2)c2ccccc2)CO1 (some centres unmarked)
20 S ratio (const:immuno) [1]: >3.0
Elisa ratio (beta5:LMP7) [2]: >1.0
Lysate ratio (HT29:Sultan/Thp1) [3]: >3.0

CC(C)C[C@H](NC(=O)OCc1ccccc1)C(=O)N[C@H](CC(C)C)C(=O)N[C@@H](Cc1ccccc1)C(=O)C1(C)CO1 (some centres unmarked)
20 S ratio (const:immuno) [1]: <0.5
Elisa ratio (beta5:LMP7) [2]: <0.5
Lysate ratio (HT29:Sultan/Thp1) [3]: <0.5

Cc1ccc(C[C@H](NC(=O)[C@H](C)NC(=O)OCc2ccccc2)C(=O)N[C@@H](Cc2ccccc2)C(=O)C2(C)CO2)cc1 (some centres unmarked)
20 S ratio (const:immuno) [1]: >2.0
Elisa ratio (beta5:LMP7) [2]: >5.0
Lysate ratio (HT29:Sultan/Thp1) [3]: >5.0

COc1ccc(C[C@H](NC(=O)C(C)NC(=O)OCc2ccccc2)C(=O)N[C@@H](Cc2ccc(O)cc2)C(=O)C2(C)CO2)cc1 (some centres unmarked) [drawing 67]
20 S ratio (const:immuno) [1]: >5.0
Elisa ratio (beta5:LMP7) [2]: >5.0
Lysate ratio (HT29:Sultan/Thp1) [3]: >3.0

C[C@H](NC(=O)OCc1ccccc1)C(=O)N[C@@H](Cc1c[nH]c2ccccc12)C(=O)N[C@@H](C)C(=O)C1(C)CO1 (some centres unmarked)
20 S ratio (const:immuno) [1]: <0.5

COc1ccc(NC(=S)N[C@@H](CC(C)C)C(=O)N[C@@H](Cc2ccccc2)C(=O)N[C@@H](CC(C)C)C(=O)C2(C)CO2)cc1 (some centres unmarked)
Lysate ratio (HT29:Sultan/Thp1) [3]: <0.5

COc1ccc(C[C@H](NC(=O)C(C)NC(=O)OCc2ccccc2)C(=O)N[C@@H](Cc2ccc(O)cc2)C(=O)C2(C)CO2)cc1 (some centres unmarked) [drawing 65]
20 S ratio (const:immuno) [1]: >5.0
Elisa ratio (beta5:LMP7) [2]: >5.0
Lysate ratio (HT29:Sultan/Thp1) [3]: >2.0

CC1(C(=O)[C@H](Cc2ccccc2)NC(=O)[C@H](Cc2ccccc2)NC(=O)[C@H](Cc2c[nH]cn2)NC(=O)OCc2ccccc2)CO1 (some centres unmarked)
20 S ratio (const:immuno) [1]: <1.0
Elisa ratio (beta5:LMP7) [2]: <1.0
Lysate ratio (HT29:Sultan/Thp1) [3]: <1.0

CC1(C(=O)[C@H](Cc2ccccc2)NC(=O)[C@H](Cc2c[nH]c3ccccc23)NC(=O)[C@H](CC(N)=O)NC(=O)OCc2ccccc2)CO1 (some centres unmarked)
20 S ratio (const:immuno) [1]: >1.0
Elisa ratio (beta5:LMP7) [2]: >1.0
Lysate ratio (HT29:Sultan/Thp1) [3]: >5.0

CC(C)C[C@H](NC(=O)CN1CCOCC1)C(=O)N[C@@H](Cc1ccccc1)C(=O)N[C@@H](CC(C)C)C(=O)C1(C)CO1 (some centres unmarked)
20 S ratio (const:immuno) [1]: <0.5
Elisa ratio (beta5:LMP7) [2]: <0.5
Lysate ratio (HT29:Sultan/Thp1) [3]: <0.5

CC1(C(=O)[C@H](Cc2ccccc2)NC(=O)[C@H](Cc2ccccc2)NC(=O)[C@H](CCC(N)=O)NC(=O)OCc2ccccc2)CO1 (some centres unmarked)
20 S ratio (const:immuno) [1]: >2.0
Elisa ratio (beta5:LMP7) [2]: >5.0
Lysate ratio (HT29:Sultan/Thp1) [3]: >3.0

CC[C@@H](NC(=O)OCc1ccccc1)C(=O)N[C@@H](Cc1c[nH]c2ccccc12)C(=O)N[C@@H](Cc1ccccc1)C(=O)C1(C)CO1 (some centres unmarked) [inhibitor (B)]
ELISA ratio (EC50 β5 antibody : LMP7 antibody) ([2]; RPMI-8226 cells treated with 0.1 nM to 1 μM): greater than 20

CC[C@@H](C)C(NC(=O)[C@H](Cc1ccccc1)NC(=O)C(C)NC(=O)OCc1ccccc1)C(=O)C1(C)CO1 (some centres unmarked)
Elisa ratio (beta5:LMP7) [2]: <1.0

CC(C)CC(NC(=O)Nc1ccccc1)C(=O)N[C@@H](Cc1ccccc1)C(=O)N[C@@H](CC(C)C)C(=O)C1(C)CO1 (some centres unmarked)
Lysate ratio (HT29:Sultan/Thp1) [3]: <0.5
